# Measurements: US5187163A, “Anti-viral compounds, dosage forms and methods” (Baker Norton Pharmaceuticals, Inc., priority 1992, dated 1993)
# Structures can show the parent of a compound that is named as a salt. Where two headings read alike, the source gives them in different places.
# Experiments:
# Type in all cases: cell-based
# HIV (TM) [1] = assay: HIV infectivity assay in MT-2 cells (HIV antigen expression by immunofluorescence, 14 days); conditions: for EC50: read-out: ED50 (drug concentration achieving 50% inhibition of HIV expression assessed by immunofluorescence); for CTI, cytotherapeutic index (ID50/ED50): ID50/ED50, day 14, MT-2 cells; for anti-HIV activity profile according to ED50 / cytotherapeutic index, ranking: in words
# Description: An isolate of HIV (TM) was obtained from the culture supernatant of normal peripheral blood mononuclear cells infected with virus isolated from a patient with AIDS. Supernatant from H9 cells infected with HIV (TM) was aliquoted at peak reverse transcriptase activity and kept frozen at -85° C. until use.
# (§1) Target MT-2 cells (an HTLV-I immortalized CD4+lymphoblastoid cell line) were propagated in growth medium (D-MEM supplemented with 15% heat-inactivated fetal bovine serum, 2mM glutamine, and 1% penicillin-streptomycin).
# (§2) Target MT-2 cells were exposed to DEAE-dextran (25 ug/ml, Sigma) for 20 minutes, washed and infected with HIV (TM) (MOI=0.001) at 37° C. for 1 hour. MT-2 cells (3×10^5 per ml) were placed in growth medium and transferred to a 24-well plastic tray followed by the addition of drug. The cells were carried at 37° C. in humidified air containing 5% CO2 for 14 days. Every 3-4 days, the medium was changed and fresh drug added. At each change of medium, cells and supernatants were assayed for measures of HIV expression. Uninfected and infected MT-2 cells without exposure to drug were used as controls. All cultures were performed in triplicate on two sets of experiments.
# *The results are expressed as the arithmetic mean of triplicate cultures
# (§3) from two sets of experiments. Linear regression analysis was used to
# ED50, drug concentration achieving 50% inhibition of HIV expression
# assessed by immunofluorescence on day 14.
# MT-2 cells = assay: Cytotoxicity (cell viability, trypan blue exclusion) in uninfected MT-2 cells; conditions: uninfected MT-2 cells, in words
# Description: as §1
# (§4) MT-2 cells (2×10^5 cells per ml) were exposed to multiple drug concentrations (performed in triplicate). The medium was changed every 3-4 days, followed by the addition of fresh drug. Cell viability was determined by the trypan blue exclusion method and compared to controls without drug.
# (§5) The comparative HIV inhibitory effects of nucleosides and the novel nucleoside dimers are shown on Table 1. The 50% inhibitory dose (ID50) and 50% effective dose (ED50) of each compound were calculated using linear regression analysis from the results of a 14 day assay that monitored cell viability and the expression of HIV antigen by cellular fluorescence.
# (§6) The growth inhibitory effects of the compounds on MT-2 cells that were not exposed to the virus were compared. According to their ID50, the compounds could be classified into three major groups. […] When the cytotoxic effects of the compounds were tested against the human cell lines H9 and U937, similar toxicity profiles were seen.
# as §3
# (§7) determine the ID50 and ED50. ID50, drug concentration
# (§8) required to reduce the number of uninfected MT2 cells by 50% on day 14.
# [2] = as above; conditions: human; day 14, uninfected MT-2 cells; mean of triplicate cultures from two sets of experiments; linear regression; read-out: ID50 (drug concentration required to reduce the number of uninfected MT2 cells by 50%)
# Description: as §1, §4, §5, §6, §3, §7, §8
# [3] = system: Reverse transcriptase (RT); assay: Inhibition of reverse transcriptase activity in culture supernatant of HIV-infected H9 cells; conditions: for Reverse Transcriptase activity in culture supernatant: H9 cells, MOI = 1.0
# Description: *Target cells = H9 cells. MOI = 1.0. Media changes with the addition of
# fresh drug were performed at 3-4 day intervals. Results are expressed as
# CPMReverse Transcriptase activity per ml in culture supernatant. CPM
# >5,000 signifies abnormal elevations in Reverse Transcriptase activity.
# The results represent the mean of duplicate studies in one experiment.
# HIV (TM) [4] = assay: 4 day HIV-induced syncytium inhibition assay in MT-2 cells; conditions: for EC100: Human immunodeficiency virus 1, MT2, 96 h, read-out: concentration for complete/full protection of MT-2 cells from the formation of syncytia; for protective effect against the development of HIV-induced syncytia: among the dimers, 4 day assay, in words
# Description: An isolate of HIV (TM) was obtained from the culture supernatant of normal peripheral blood mononuclear cells infected with virus isolated from a patient with AIDS. Supernatant from H9 cells infected with HIV (TM) was aliquoted at peak reverse transcriptase activity and kept frozen at -85° C. until use. HIV (TM) infectivity assays using sequential fivefold dilutions (performed in quadruplicate) determined the infectious virus titer (Reed-Muench method) to be 10^4.5 TC ID50 per ml.
# as §1, §2
# MT-2 cells were chosen because of their sensitivity to HIV infection with the formation of giant syncytia that are quantifiable. The cytopathic effect of HIV could be monitored as a function of the input virus inoculum. When MT-2 cells were monitored in a 14 day assay, a MOI of 0.001 gave rise to the formation of syncytia after 4 days (>400 per well) and peak reverse transcriptase levels by day 8.
# To investigate the inhibitory effects of the drugs on HIV-induced syncytia formation, the nucleoside dimers were compared to their monomers and their combinations at multiple concentrations in a 4 day syncytium inhibition assay.
# [5] = Human immunodeficiency virus 1, MT2, 336 h
# [6] = 1 Ug/ml, day 7, control (no drug) 11,000
# [7] = 1 Ug/ml, day 11, control (no drug) 38,000
# [8] = 1 Ug/ml, day 14, control (no drug) 34,000
# [9] = 5 Ug/ml, day 7, control (no drug) 11,000
# [10] = 5 Ug/ml, day 11, control (no drug) 38,000
# [11] = 5 Ug/ml, day 14, control (no drug) 34,000
SMILES,EC50 (HIV (TM) [1]; [5]),"CTI, cytotherapeutic index (ID50/ED50) (HIV (TM) [1]; 20160 min)",anti-HIV activity profile according to ED50 (HIV (TM) [1]),toxicity group according to ID50 (MT-2 cells),CC50 at 336 h [2],"Reverse Transcriptase activity in culture supernatant [3, 6]","Reverse Transcriptase activity in culture supernatant [3, 7]","Reverse Transcriptase activity in culture supernatant [3, 8]","Reverse Transcriptase activity in culture supernatant [3, 9]","Reverse Transcriptase activity in culture supernatant [3, 10]","Reverse Transcriptase activity in culture supernatant [3, 11]",EC100 (HIV (TM) [4]),protective effect against the development of HIV-induced syncytia (HIV (TM) [4]),"cytotherapeutic index, ranking (HIV (TM) [1])",other results
"Cc1cn(C2CC(N=[N+]=[N-])C(COP(=O)(O)OCC3OC(n4cc(C)c(=O)[nH]c4=O)CC3N=[N+]=[N-])O2)c(=O)[nH]c1=O (stereo not shown) [AZT-P-AZT, reference compound]",1.5 µM,40,most potent,highest toxicity,60 µM,,,,,,,,,,
"Cc1cn([C@H]2C[C@H](N=[N+]=[N-])[C@@H](COP(=O)(O)OC[C@@H]3CC[C@H](n4cnc5c(N)ncnc54)O3)O2)c(=O)[nH]c1=O [AZT-P-ddA, azido-beta-thymidine-2',3'-dideoxyadenosine phosphate ammonium salt]",0.8 µM,250,most potent,moderate toxicity,200 µM,"1,500 CPM per ml","12,000 CPM per ml","26,500 CPM per ml",500 CPM per ml,500 CPM per ml,500 CPM per ml,0.5 µM,strongest protective effect,highest,activity in RT assay compared with AZT ([3]; in words): comparable to that of AZT
"Nc1ncnc2c1ncn2[C@H]1CC[C@@H](CO)O1 [ddA, 2',3'-dideoxyadenosine, reference compound]",7 µM,57,weaker activities,least toxicity,400 µM,,,,,,,10 µM,,,"Reverse Transcriptase activity in culture supernatant ([3]; 1 uM, day 7, control (no drug) 11,000): 5,500 CPM per ml; Reverse Transcriptase activity in culture supernatant ([3]; 1 uM, day 11, control (no drug) 38,000): 45,000 CPM per ml; Reverse Transcriptase activity in culture supernatant ([3]; 1 uM, day 14, control (no drug) 34,000): 39,500 CPM per ml; Reverse Transcriptase activity in culture supernatant ([3]; 10 uM, day 7, control (no drug) 11,000): 500 CPM per ml; Reverse Transcriptase activity in culture supernatant ([3]; 10 uM, day 11, control (no drug) 38,000): 3,000 CPM per ml; Reverse Transcriptase activity in culture supernatant ([3]; 10 uM, day 14, control (no drug) 34,000): 4,500 CPM per ml"
Cc1cn([C@H]2C[C@H](N=[N+]=[N-])[C@@H](COP(=O)(OCCC#N)OC[C@@H]3CC[C@H](n4cnc5c(N)ncnc54)O3)O2)c(=O)[nH]c1=O (stereo partly shown) [AZT-P(CyE)-ddA],0.7 µM,300,most potent,moderate toxicity,210 µM,"6,000 CPM per ml","43,000 CPM per ml","36,000 CPM per ml","1,000 CPM per ml","4,500 CPM per ml","12,000 CPM per ml",0.5 µM,strongest protective effect,highest,
"Cc1cn([C@H]2C[C@H](N=[N+]=[N-])[C@@H](COP(=O)(O)OC[C@@H]3CC[C@H](n4cnc5c(=O)[nH]cnc54)O3)O2)c(=O)[nH]c1=O [AZT-P-ddI, azido-β-thymidine-2',3'-dideoxyinosine phosphate ammonium salt]",1 µM,240,most potent,moderate toxicity,240 µM,"1,000 CPM per ml","3,000 CPM per ml","10,000 CPM per ml","1,000 CPM per ml","1,500 CPM per ml","25,000 CPM per ml",,,highest,duration of inhibition of the enzyme (RT) ([3]; 1 ug/ml): at least 11 days
"O=c1[nH]cnc2c1ncn2[C@H]1CC[C@@H](CO)O1 [ddI, 2',3'-dideoxyinsine, reference compound]",,60,weaker activities,least toxicity,450 µM,,,,,,,,,,"EC50 (HIV (TM) [1]; day 14, HIV-infected MT-2 cells, MOI 0.001, mean of triplicate cultures from two sets of experiments, linear regression, 20160 min): 7.5 µM"
